Assay results: ChEMBL document CHEMBL1132266, “Synthesis and evaluation of 1-position-modified inositol 1,4,5-trisphosphate analogs” (Bioorg Med Chem Lett, 1999)
pKd: −log10 of the molar value.

Target: Inositol 1,4,5-trisphosphate-gated calcium channel ITPR3 (Homo sapiens, UniProt Q14573)
Assay: Dissociation constant of compound was measured in IP3-binding domain(IBD) of human Inositol 1,4,5-trisphosphate receptor at pH 7.4

Sequence of Inositol 1,4,5-trisphosphate-gated calcium channel ITPR3 (Q14573 whole entry, the tested form may be a part): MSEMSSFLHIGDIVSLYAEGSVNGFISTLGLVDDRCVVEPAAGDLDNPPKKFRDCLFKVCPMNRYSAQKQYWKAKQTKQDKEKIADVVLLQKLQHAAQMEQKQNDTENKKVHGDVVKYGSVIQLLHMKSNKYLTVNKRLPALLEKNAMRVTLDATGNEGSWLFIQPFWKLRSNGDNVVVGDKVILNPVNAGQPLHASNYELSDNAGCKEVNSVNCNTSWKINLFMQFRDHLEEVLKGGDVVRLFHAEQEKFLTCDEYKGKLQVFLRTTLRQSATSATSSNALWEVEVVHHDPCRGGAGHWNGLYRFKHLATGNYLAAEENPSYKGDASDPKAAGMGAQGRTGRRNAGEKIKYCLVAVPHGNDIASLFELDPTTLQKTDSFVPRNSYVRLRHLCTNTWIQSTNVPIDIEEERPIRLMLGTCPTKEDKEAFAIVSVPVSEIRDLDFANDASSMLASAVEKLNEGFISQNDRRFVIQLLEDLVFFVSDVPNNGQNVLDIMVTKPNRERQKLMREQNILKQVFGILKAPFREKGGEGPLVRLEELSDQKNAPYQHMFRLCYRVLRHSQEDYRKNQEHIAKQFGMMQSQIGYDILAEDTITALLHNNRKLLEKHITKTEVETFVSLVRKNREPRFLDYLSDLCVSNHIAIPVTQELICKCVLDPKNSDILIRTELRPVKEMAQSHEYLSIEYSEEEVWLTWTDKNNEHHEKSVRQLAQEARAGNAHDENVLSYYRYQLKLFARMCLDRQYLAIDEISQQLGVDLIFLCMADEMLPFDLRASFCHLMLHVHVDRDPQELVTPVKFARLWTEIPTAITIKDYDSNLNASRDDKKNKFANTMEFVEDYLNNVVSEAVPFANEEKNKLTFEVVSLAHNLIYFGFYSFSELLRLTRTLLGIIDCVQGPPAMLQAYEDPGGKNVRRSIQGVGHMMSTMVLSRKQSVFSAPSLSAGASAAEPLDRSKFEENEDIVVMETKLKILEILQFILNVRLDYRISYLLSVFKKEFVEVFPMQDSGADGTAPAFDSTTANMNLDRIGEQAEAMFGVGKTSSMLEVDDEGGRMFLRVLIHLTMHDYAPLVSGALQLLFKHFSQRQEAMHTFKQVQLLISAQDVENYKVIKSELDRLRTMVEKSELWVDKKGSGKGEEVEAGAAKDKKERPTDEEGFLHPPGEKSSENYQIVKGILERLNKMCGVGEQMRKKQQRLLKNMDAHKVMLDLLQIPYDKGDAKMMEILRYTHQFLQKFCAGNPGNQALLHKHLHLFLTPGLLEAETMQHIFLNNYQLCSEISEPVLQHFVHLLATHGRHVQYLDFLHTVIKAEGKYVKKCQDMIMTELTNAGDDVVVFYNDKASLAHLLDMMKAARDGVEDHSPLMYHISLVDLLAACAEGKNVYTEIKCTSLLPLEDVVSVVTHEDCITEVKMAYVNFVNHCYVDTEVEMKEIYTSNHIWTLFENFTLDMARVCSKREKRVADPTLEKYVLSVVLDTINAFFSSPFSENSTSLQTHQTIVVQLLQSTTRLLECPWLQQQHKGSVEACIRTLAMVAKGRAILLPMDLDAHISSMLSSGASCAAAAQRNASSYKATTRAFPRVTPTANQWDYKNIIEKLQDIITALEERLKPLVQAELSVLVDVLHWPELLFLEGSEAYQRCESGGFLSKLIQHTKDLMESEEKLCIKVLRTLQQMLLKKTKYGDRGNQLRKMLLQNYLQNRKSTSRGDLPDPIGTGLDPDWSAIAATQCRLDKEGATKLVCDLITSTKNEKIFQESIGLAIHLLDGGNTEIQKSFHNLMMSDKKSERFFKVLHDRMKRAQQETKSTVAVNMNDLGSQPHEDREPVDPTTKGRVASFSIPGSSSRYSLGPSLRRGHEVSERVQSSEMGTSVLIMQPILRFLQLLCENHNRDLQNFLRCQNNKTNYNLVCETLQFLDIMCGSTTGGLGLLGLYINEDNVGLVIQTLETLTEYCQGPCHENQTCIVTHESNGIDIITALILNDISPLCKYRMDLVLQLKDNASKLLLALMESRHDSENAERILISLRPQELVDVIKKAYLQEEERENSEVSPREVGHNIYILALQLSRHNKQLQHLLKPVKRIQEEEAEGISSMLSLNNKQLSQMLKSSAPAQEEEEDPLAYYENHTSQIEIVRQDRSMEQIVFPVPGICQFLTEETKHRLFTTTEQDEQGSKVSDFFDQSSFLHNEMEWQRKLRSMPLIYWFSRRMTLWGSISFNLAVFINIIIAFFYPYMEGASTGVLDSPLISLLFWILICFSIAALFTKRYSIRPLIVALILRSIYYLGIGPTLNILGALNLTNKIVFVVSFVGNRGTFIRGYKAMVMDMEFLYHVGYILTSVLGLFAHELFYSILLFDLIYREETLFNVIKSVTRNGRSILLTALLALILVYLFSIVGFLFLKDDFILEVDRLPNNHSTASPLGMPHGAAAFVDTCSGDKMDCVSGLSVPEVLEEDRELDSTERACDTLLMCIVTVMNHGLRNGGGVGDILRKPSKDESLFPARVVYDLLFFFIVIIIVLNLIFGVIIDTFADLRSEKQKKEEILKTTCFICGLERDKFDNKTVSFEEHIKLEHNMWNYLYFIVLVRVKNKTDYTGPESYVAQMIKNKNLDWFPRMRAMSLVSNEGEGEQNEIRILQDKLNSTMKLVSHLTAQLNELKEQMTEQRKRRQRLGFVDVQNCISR

Row | pKd | Compound
1 | 8.93 | CN(C)c1ccc(C(=C2C=CC(=[N+](C)C)C=C2)c2ccc(C(=O)NCCCOP(=O)(O)O[C@@H]3[C@H](O)[C@H](O)[C@@H](OP(=O)(O)O)[C@H](OP(=O)(O)O)[C@H]3O)cc2)cc1
2 | 5.95 | NCCCOP(=O)(O)O[C@@H]1[C@H](O)[C@H](O)[C@@H](OP(=O)(O)O)[C@H](OP(=O)(O)O)[C@H]1O
3 | 6.73 | O=C(NCCCOP(=O)(O)O[C@@H]1[C@H](O)[C@H](O)[C@@H](OP(=O)(O)O)[C@H](OP(=O)(O)O)[C@H]1O)Oc1ccc2c(c1)Oc1cc(O)ccc1C21OC(=O)c2ccccc21 (stereo partly drawn)
